Drawing on patent publication EP0019764A1, “Trans-3-(4'-tert.-butyl-cyclohexyl-1')-2-methyl-1-(3'-methylpiperidino, 3',5'-dimethylpiperidino and 2', 6'-dimethylmorpholino) propane, process for their pure preparation, antimycotic agents containing them and their utilisation” (BASF Aktiengesellschaft, priority 1979, dated 1980), this text covers MIC for 5 compounds.

In brackets after ≈: the same amount, converted by molar mass. Read-outs that look alike come from different tables or passages of the source.

Holding throughout (assay): agar dilution test, minimal inhibitory concentration
Common to all, as to type: cell-based
(In agar dilution the substance is mixed into plates at graded concentrations.)

One test has as its system Microsporum gypseum. Conditions: Nannizzia gypsea; Stamm No 156/M; Agardilutionstest; read-out: MHK-Werte. The source says: (§1) Die Wirkung gegenüber Mikroorganismen kann nach Methoden, wie sie beispielsweise in P. Klein, Bakteriologische Grundlagen der chemotherapeutischen Laboratoriumspraxis, Springer-Verlag Berlin, 1957, beschrieben sind, aufgezeigt werden.
(§2) Beispielsweise wurde geprüft, welche minimalen Hemmkonzentrationen (MHK-Werte) im Agardilutionstest gegen pathogene Pilze erreicht werden können.
(§3) In der folgenden Tabelle 1 sind die Ergebnisse zusammengefaßt: […]

For a further test, the system named is Epidermophyton floccosum. Conditions: Stamm No 157/M, Agardilutionstest, read-out: MHK-Werte.
Excerpt: as §1, §2, §3

The next test has as its system Trichophyton violaceum. Conditions: Stamm No 10/M, Agardilutionstest, read-out: MHK-Werte.
Excerpt: as §1, §2, §3

The subject of test [1] is Trichophyton mentagrophytes. The note with it: Agardilutionstest, read-out: MHK-Werte.
Excerpt: as §1, §2, §3

The subject of a further test is Microsporum ferrugineum. The note with it: Stamm No 5/M, Agardilutionstest, read-out: MHK-Werte.
Excerpt: as §1, §2, §3

A further test relates to Trichophyton rubrum. The note with it: Stamm No 158/M, Agardilutionstest, read-out: MHK-Werte.
Excerpt: as §1, §2, §3

Test [2] deals with Trichophyton schoenleinii. The note with it: Stamm No 9/M, Agardilutionstest, read-out: MHK-Werte.
Excerpt: as §1, §2, §3

A further test concerns Microsporum canis. The note with it: Agardilutionstest, read-out: MHK-Werte.
Excerpt: as §1, §2, §3

For `Clc1ccc(COC(Cn2ccnc2)c2ccc(Cl)cc2Cl)c(Cl)c1` (stereo not shown) [Miconazol, reference compound], the MIC in the test on Microsporum gypseum was above 1.28 µg/mL; in the test on Epidermophyton floccosum, above 1.28 µg/mL; with Trichophyton violaceum it was 0.64 µg/mL (≈ 1.54 µM); in test [1] (Stamm No 19/M) it was above 1.28 µg/mL; in test [1] (Stamm No 21/M), above 1.28 µg/mL; in test [1] (Stamm No 159/M), 0.32 µg/mL (≈ 0.769 µM). Besides, the MIC is above 1.28 µg/mL in test [1] (Stamm No 160/M); 1.28 µg/mL (≈ 3.08 µM) in test [1] (Stamm No 170/M); 0.64 µg/mL (≈ 1.54 µM) in test [1] (Stamm No 171/M); 0.32 µg/mL (≈ 0.769 µM) in test [1] (Stamm No 172/M); 0.32 µg/mL (≈ 0.769 µM) in test [1] (Stamm No 173/M); above 1.28 µg/mL in test [1] (Stamm No 174/M). For the same compound, the MIC (with Microsporum ferrugineum; in the test with Trichophyton rubrum; in test [2]; with Microsporum canis (Stamm No 155/M); in the test with Microsporum canis (Stamm No 167/M); in the test with Microsporum canis (Stamm No 168/M)) was above 1.28 µg/mL throughout. For the same compound, the MIC with Microsporum canis (Stamm No 169/M) is above 1.28 µg/mL.

For the compound `Clc1ccccc1C(c1ccccc1)(c1ccccc1)n1ccnc1` [Clotrimazol, reference compound], the MIC in the test with Microsporum gypseum came out at 0.64 µg/mL (≈ 1.86 µM); in the test with Epidermophyton floccosum, 0.32 µg/mL (≈ 0.928 µM); in the test on Trichophyton violaceum it was 0.16 µg/mL (≈ 0.464 µM); in test [1] (Stamm No 19/M), 1.28 µg/mL (≈ 3.71 µM); in test [1] (Stamm No 21/M), 1.28 µg/mL (≈ 3.71 µM); in test [1] (Stamm No 159/M) it was 0.32 µg/mL (≈ 0.928 µM). Moreover, the MIC is 0.64 µg/mL (≈ 1.86 µM) in test [1] (Stamm No 160/M); 0.32 µg/mL (≈ 0.928 µM) in test [1] (Stamm No 170/M); 0.32 µg/mL (≈ 0.928 µM) in test [1] (Stamm No 171/M); 0.64 µg/mL (≈ 1.86 µM) in test [1] (Stamm No 172/M); 0.64 µg/mL (≈ 1.86 µM) in test [1] (Stamm No 173/M); 1.28 µg/mL (≈ 3.71 µM) in test [1] (Stamm No 174/M). Moreover, the MIC was found to be 0.16 µg/mL (≈ 0.464 µM) with Microsporum ferrugineum; 1.28 µg/mL (≈ 3.71 µM) in the test with Trichophyton rubrum; 0.64 µg/mL (≈ 1.86 µM) in test [2]; 0.32 µg/mL (≈ 0.928 µM) in the test on Microsporum canis (Stamm No 155/M); 0.64 µg/mL (≈ 1.86 µM) in the test on Microsporum canis (Stamm No 167/M); 0.16 µg/mL (≈ 0.464 µM) in the test on Microsporum canis (Stamm No 168/M). For the same compound, in the test on Microsporum canis (Stamm No 169/M), the MIC worked out at 0.64 µg/mL (≈ 1.86 µM).

For the compound `CC(CN1C[C@@H](C)O[C@@H](C)C1)C[C@H]1CC[C@@H](C(C)(C)C)CC1` (relative stereo) [(3) cis, cis- und trans-3-(4'-tert.-Butyl-cyclohexyl-l')-2--methyl-l-(2',6'-cis-dimethyl-morpholyl)-propan], the MIC in the test on Epidermophyton floccosum was 0.25 µg/mL (≈ 0.808 µM); in test [1] (Stamm No 19/M), 1 µg/mL (≈ 3.23 µM); in test [1] (Stamm No 21/M), 1 µg/mL (≈ 3.23 µM); in test [1] (Stamm No 159/M) it was 0.0625 µg/mL (≈ 0.202 µM); in test [1] (Stamm No 170/M) it was 0.0625 µg/mL (≈ 0.202 µM); in test [1] (Stamm No 171/M) it was 0.0625 µg/mL (≈ 0.202 µM). Also, the MIC in test [1] (Stamm No 172/M) is 0.25 µg/mL (≈ 0.808 µM); in test [1] (Stamm No 173/M), 0.25 µg/mL (≈ 0.808 µM); in the test on Microsporum ferrugineum it was 0.0312 µg/mL (≈ 0.101 µM); in the test with Trichophyton rubrum, above 1 µg/mL; in the test on Microsporum canis (Stamm No 155/M) it was 0.5 µg/mL (≈ 1.62 µM); with Microsporum canis (Stamm No 167/M), 0.0625 µg/mL (≈ 0.202 µM). Moreover, the MIC in the test with Microsporum canis (Stamm No 168/M) is 0.0625 µg/mL (≈ 0.202 µM).

As to `CC1CC(C)CN(CC(C)C[C@H]2CC[C@@H](C(C)(C)C)CC2)C1` (relative stereo) [(2) cis, cis- und trans-3-(4'-tert.-Butyl-cyclohexyl-1')-2--methyl-1-(3',5'-dimethyl-1'-piperidino)-propan], the MIC was 0.0625 µg/mL (≈ 0.203 µM) in the test on Trichophyton violaceum; 0.25 µg/mL (≈ 0.813 µM) in test [1] (Stamm No 19/M); 0.0156 µg/mL (≈ 0.0507 µM) in test [1] (Stamm No 159/M); 0.0625 µg/mL (≈ 0.203 µM) in test [1] (Stamm No 170/M); 0.0625 µg/mL (≈ 0.203 µM) in test [1] (Stamm No 171/M); 0.25 µg/mL (≈ 0.813 µM) in test [1] (Stamm No 173/M). Besides, the figures for the MIC (in the test on Microsporum ferrugineum; in test [2]; in the test with Microsporum canis (Stamm No 168/M)) were 0.0625 µg/mL (≈ 0.203 µM), 0.0625 µg/mL (≈ 0.203 µM) and 0.0312 µg/mL (≈ 0.101 µM), respectively.

On to `Cc1cccc(N(C)C(=S)Oc2ccc3ccccc3c2)c1` [Tolnaftat, reference compound], for which the MIC in the test on Microsporum gypseum was 0.16 µg/mL (≈ 0.52 µM); in the test on Epidermophyton floccosum, 0.32 µg/mL (≈ 1.04 µM); in the test with Trichophyton violaceum, below 0.01 µg/mL; in test [1] (Stamm No 19/M), 0.04 µg/mL (≈ 0.13 µM); in test [1] (Stamm No 21/M), 0.32 µg/mL (≈ 1.04 µM); in test [1] (Stamm No 159/M), 0.08 µg/mL (≈ 0.26 µM). In addition, the MIC in test [1] (Stamm No 160/M) was 0.32 µg/mL (≈ 1.04 µM); in test [1] (Stamm No 170/M), 0.08 µg/mL (≈ 0.26 µM); in test [1] (Stamm No 171/M) it was 0.16 µg/mL (≈ 0.52 µM); in test [1] (Stamm No 172/M) it was 0.64 µg/mL (≈ 2.08 µM); in test [1] (Stamm No 173/M) it was 0.32 µg/mL (≈ 1.04 µM); in test [1] (Stamm No 174/M), 0.08 µg/mL (≈ 0.26 µM). Further, the MIC in the test with Microsporum ferrugineum is 0.16 µg/mL (≈ 0.52 µM); with Trichophyton rubrum, 0.08 µg/mL (≈ 0.26 µM); in test [2], 0.04 µg/mL (≈ 0.13 µM); with Microsporum canis (Stamm No 155/M) it was 0.32 µg/mL (≈ 1.04 µM); with Microsporum canis (Stamm No 167/M), 0.16 µg/mL (≈ 0.52 µM); in the test with Microsporum canis (Stamm No 168/M), 0.04 µg/mL (≈ 0.13 µM). Further, the MIC in the test on Microsporum canis (Stamm No 169/M) was 0.32 µg/mL (≈ 1.04 µM).
